# The source made the active and inactive calls. The rule behind the calls is not given here.
# Assays:
# Ammannia multiflora [1] = experiment: Pre-emergence herbicidal activity against Ammannia multiflora at 500 g a.i/ha measured after 14 days; type: functional, organism-based
# [2] = tested on: Schoenoplectiella juncoides; experiment: Post-emergence herbicidal activity against Schoenoplectiella juncoides assessed as bleaching of stem/leaf parts; type: functional, organism-based; also: test concentration or dose not given here
# Pontederia vaginalis [3] = experiment: Pre-emergence herbicidal activity against Monochoria vaginalis at 500 g a.i/ha measured after 14 days; type: functional, organism-based
# Elatine triandra [4] = experiment: Pre-emergence herbicidal activity against Elatine triandra at 500 g a.i/ha measured after 14 days; type: functional, organism-based
# Pontederia vaginalis [5] = experiment: Post-emergence herbicidal activity against Monochoria vaginalis assessed as bleaching of stem/leaf parts; type: functional, organism-based
# Echinochloa oryzicola [6] = experiment: Pre-emergence herbicidal activity against Echinochloa oryzicola at 500 g a.i/ha measured after 14 days; type: functional, organism-based
# [7] = tested on: Schoenoplectiella juncoides; experiment: Pre-emergence herbicidal activity against Schoenoplectiella juncoides at 500 g a.i/ha measured after 14 days; type: functional, organism-based
# Pontederia vaginalis [8] = experiment: Pre-emergence herbicidal activity against Monochoria vaginalis assessed as bleaching of stem/leaf parts; type: functional, organism-based
# Elatine triandra [9] = experiment: Pre-emergence herbicidal activity against Elatine triandra assessed as bleaching of stem/leaf parts; type: functional, organism-based
# Lindernia procumbens [10] = experiment: Pre-emergence herbicidal activity against Lindernia procumbens at 500 g a.i/ha measured after 14 days; type: functional, organism-based
# Cyperus difformis [11] = experiment: Pre-emergence herbicidal activity against Cyperus difformis at 500 g a.i/ha measured after 14 days; type: functional, organism-based
# Elatine triandra [12] = experiment: Post-emergence herbicidal activity against Elatine triandra assessed as bleaching of stem/leaf parts; type: functional, organism-based; also: test concentration or dose not given here
# Ammannia multiflora [13] = experiment: Post-emergence herbicidal activity against Ammannia multiflora assessed as bleaching of stem/leaf parts; type: functional, organism-based
# Echinochloa oryzicola [14] = experiment: Pre-emergence herbicidal activity against Echinochloa oryzicola assessed as bleaching of stem/leaf parts; type: functional, organism-based
# Rotala indica [15] = experiment: Pre-emergence herbicidal activity against Rotala indica at 500 g a.i/ha measured after 14 days; type: functional, organism-based
# Rotala indica [16] = experiment: Post-emergence herbicidal activity against Rotala indica assessed as bleaching of stem/leaf parts; type: functional, organism-based
# Lindernia procumbens [17] = experiment: Post-emergence herbicidal activity against Lindernia procumbens assessed as bleaching of stem/leaf parts; type: functional, organism-based; also: test concentration or dose not given here
# Lindernia procumbens [18] = experiment: Pre-emergence herbicidal activity against Lindernia procumbens assessed as bleaching of stem/leaf parts; type: functional, organism-based
# Cyperus difformis [19] = experiment: Pre-emergence herbicidal activity against Cyperus difformis assessed as bleaching of stem/leaf parts; type: functional, organism-based
# Ammannia multiflora [20] = experiment: Pre-emergence herbicidal activity against Ammannia multiflora assessed as bleaching of stem/leaf parts; type: functional, organism-based
# Echinochloa oryzicola [21] = experiment: Post-emergence herbicidal activity against Echinochloa oryzicola assessed as bleaching of stem/leaf parts; type: functional, organism-based
# Rotala indica [22] = experiment: Pre-emergence herbicidal activity against Rotala indica assessed as bleaching of stem/leaf parts; type: functional, organism-based
# Cyperus difformis [23] = experiment: Post-emergence herbicidal activity against Cyperus difformis assessed as bleaching of stem/leaf parts; type: functional, organism-based; also: test concentration or dose not given here
# [24] = tested on: Schoenoplectiella juncoides; experiment: Pre-emergence herbicidal activity against Schoenoplectiella juncoides assessed as bleaching of stem/leaf parts; type: functional, organism-based
# Oryza sativa = experiment: Phytotoxicity against Oryza sativa cv. Koshihikari (rice) at 500 g a.i/ha measured after 14 days; type: organism-based; settings: in vivo, 336 h
Structure (SMILES),Activity (Ammannia multiflora [1]),Activity [2],Activity (Pontederia vaginalis [3]),Activity (Elatine triandra [4]),Activity (Pontederia vaginalis [5]),Activity (Echinochloa oryzicola [6]),Activity [7],Activity (Pontederia vaginalis [8]),Activity (Elatine triandra [9]),Activity (Lindernia procumbens [10]),Activity (Cyperus difformis [11]),Activity (Elatine triandra [12]),Activity (Ammannia multiflora [13]),Activity (Echinochloa oryzicola [14]),Activity (Rotala indica [15]),Activity (Rotala indica [16]),Activity (Lindernia procumbens [17]),Activity (Lindernia procumbens [18]),Activity (Cyperus difformis [19]),Activity (Ammannia multiflora [20]),further results
CSc1ccc(Oc2nn(C)cc2C(=O)Nc2ccc(F)cc2F)cc1C(F)(F)F,Active,Active,Active,Active,Active,Active,inactive,Active,Active,Active,Active,Active,Active,Active,Active,Active,Active,Active,Active,Active,Activity (Echinochloa oryzicola [21]): Active; Activity (Rotala indica [22]): Active; Activity (Cyperus difformis [23]): Active; Activity [24]: Active; Activity (Oryza sativa): Non-toxic
Cn1cc(NC(=O)c2ccc(F)cc2F)c(Oc2cccc(C(F)(F)F)c2)n1,inactive,Active,inactive,inactive,Active,inactive,inactive,Active,Active,inactive,inactive,Active,Active,Active,inactive,Active,Active,Active,Active,Active,Activity (Echinochloa oryzicola [21]): Active; Activity (Rotala indica [22]): Active; Activity (Cyperus difformis [23]): Active; Activity [24]: Active; Activity (Oryza sativa): Non-toxic
Cn1cc(NC(=O)c2ccccc2)c(Oc2cccc(C(F)(F)F)c2)n1,inactive,Active,inactive,inactive,Active,Active,inactive,Active,Active,inactive,inactive,Active,Active,Active,inactive,Active,Active,Active,Active,Active,Activity (Echinochloa oryzicola [21]): Active; Activity (Rotala indica [22]): Active; Activity (Cyperus difformis [23]): Active; Activity [24]: Active; Activity (Oryza sativa): Non-toxic
Cn1cc(C(=O)N2CCCC2)c(Oc2cccc(C(F)(F)F)c2)n1,inactive,Active,inactive,inactive,Active,inactive,inactive,Active,Active,inactive,inactive,Active,Active,Active,inactive,Active,Active,Active,Active,Active,Activity (Echinochloa oryzicola [21]): Active; Activity (Rotala indica [22]): Active; Activity (Cyperus difformis [23]): Active; Activity [24]: Active; Activity (Oryza sativa): Non-toxic
CCCN(CC)C(=O)c1cn(C)nc1Oc1cccc(C(F)(F)F)c1,inactive,Active,inactive,inactive,Active,inactive,inactive,Active,Active,inactive,inactive,Active,Active,Active,inactive,Active,Active,Active,Active,Active,Activity (Echinochloa oryzicola [21]): Active; Activity (Rotala indica [22]): Active; Activity (Cyperus difformis [23]): Active; Activity [24]: Active; Activity (Oryza sativa): Non-toxic
Cn1cc(NC(=O)c2ccc(F)cc2)c(Oc2cccc(C(F)(F)F)c2)n1,inactive,Active,inactive,inactive,Active,inactive,inactive,Active,Active,inactive,inactive,Active,Active,Active,inactive,Active,Active,Active,Active,Active,Activity (Echinochloa oryzicola [21]): Active; Activity (Rotala indica [22]): Active; Activity (Cyperus difformis [23]): Active; Activity [24]: Active; Activity (Oryza sativa): Non-toxic
Cn1cc(C(=O)NCC2CCCO2)c(Oc2cccc(C(F)(F)F)c2)n1 (stereo not given),inactive,Active,inactive,inactive,Active,inactive,inactive,Active,Active,inactive,inactive,Active,Active,Active,inactive,Active,Active,Active,Active,Active,Activity (Echinochloa oryzicola [21]): Active; Activity (Rotala indica [22]): Active; Activity (Cyperus difformis [23]): Active; Activity [24]: Active; Activity (Oryza sativa): Non-toxic
C#CCNC(=O)c1cn(C)nc1Oc1cccc(C(F)(F)F)c1,inactive,Active,inactive,inactive,Active,inactive,inactive,Active,Active,inactive,inactive,Active,Active,Active,inactive,Active,Active,Active,Active,Active,Activity (Echinochloa oryzicola [21]): Active; Activity (Rotala indica [22]): Active; Activity (Cyperus difformis [23]): Active; Activity [24]: Active; Activity (Oryza sativa): Non-toxic
Cn1cc(C(=O)NCc2cccc(Cl)c2)c(Oc2cccc(C(F)(F)F)c2)n1,inactive,Active,inactive,inactive,Active,inactive,inactive,Active,Active,inactive,inactive,Active,Active,Active,inactive,Active,Active,Active,Active,Active,Activity (Echinochloa oryzicola [21]): Active; Activity (Rotala indica [22]): Active; Activity (Cyperus difformis [23]): Active; Activity [24]: Active; Activity (Oryza sativa): Non-toxic
